Test results reported in the NIST ThermoML archive (doi:10.1016/j.jct.2011.07.002).

Experiments:
[1] = mn = molality of the nth substance listed, in mol/kg; settings: 101 kPa, Liquid; for mass density: Vibrating tube method
[2] = molar heat capacity at constant pressure; mn = molality of the nth substance listed, in mol/kg; settings: 298.15 K, 101 kPa, Liquid, Flow calorimetry

Cc1cn([C@H]2CC(O)[C@@H](CO)O2)c(=O)[nH]c1=O (stereo not given in full) [thymidine] + O
[1]
Settings | mass density [kg/m3] | speed of sound [m/s]
288.15 K, m1 = 0.02897 | 1001.3 | –
288.15 K, m1 = 0.04107 | 1002.22 | –
288.15 K, m1 = 0.05418 | 1003.2 | –
288.15 K, m1 = 0.06905 | 1004.3 | –
288.15 K, m1 = 0.08071 | 1005.18 | –
288.15 K, m1 = 0.0935 | 1006.13 | –
288.15 K, m1 = 0.1077 | 1007.17 | –
288.15 K, m1 = 0.122 | 1008.22 | –
288.15 K, m1 = 0.1336 | 1009.07 | –
298.15 K, m1 = 0.02049 | 998.571 | 1498.1
298.15 K, m1 = 0.03005 | 999.279 | 1498.8
298.15 K, m1 = 0.03798 | 999.866 | 1499.4
298.15 K, m1 = 0.04153 | 1000.13 | 1499.6
298.15 K, m1 = 0.04752 | 1000.57 | 1500
298.15 K, m1 = 0.05597 | 1001.19 | 1500.6
298.15 K, m1 = 0.06455 | 1001.82 | 1501.2
298.15 K, m1 = 0.0743 | 1002.53 | 1501.9
298.15 K, m1 = 0.08286 | 1003.15 | 1502.4
298.15 K, m1 = 0.09266 | 1003.86 | 1503.1
303.15 K, m1 = 0.02802 | 997.714 | –
303.15 K, m1 = 0.03767 | 998.422 | –
303.15 K, m1 = 0.04737 | 999.127 | –
303.15 K, m1 = 0.05795 | 999.898 | –
303.15 K, m1 = 0.06905 | 1000.7 | –
303.15 K, m1 = 0.08175 | 1001.62 | –
303.15 K, m1 = 0.09431 | 1002.52 | –
303.15 K, m1 = 0.1077 | 1003.49 | –
303.15 K, m1 = 0.1198 | 1004.35 | –
313.15 K, m1 = 0.03767 | 994.944 | –
313.15 K, m1 = 0.04737 | 995.64 | –
313.15 K, m1 = 0.05795 | 996.397 | –
313.15 K, m1 = 0.0689 | 997.176 | –
313.15 K, m1 = 0.08175 | 998.094 | –
313.15 K, m1 = 0.09431 | 998.979 | –
313.15 K, m1 = 0.1079 | 999.926 | –
313.15 K, m1 = 0.1198 | 1000.77 | –

[2]
Settings | molar heat capacity at constant pressure [J/K/mol]
m1 = 0.02897 | 450.9
m1 = 0.04107 | 449.7
m1 = 0.05418 | 447.6
m1 = 0.06918 | 452.8
m1 = 0.08071 | 452
m1 = 0.0935 | 452.9
m1 = 0.1078 | 453.3
m1 = 0.122 | 453.8
m1 = 0.1336 | 455.5
